18 compounds from patent US10420341B2, “Herbicidal phenylpyrimidines” (BASF SE, priority 2015, dated 2019) can be followed below.

In one assay the test system is AMARE. Kind of assay: greenhouse post-emergence herbicidal test. The class given is in vivo, Amaranthus retroflexus. Conditions: post-emergence method, application rate 2000 g/ha, scale from 0 to 100. From the text: (§1) The seeds of the test plants were sown separately for each species. For the post-emergence treatment, the test plants were first grown to a height of 3 to 15 cm, depending on the plant habit, and only then treated with the active ingredients which had been suspended or emulsified in water. For this purpose, the test plants were either sown directly and grown in the same containers, or they were first grown separately as seedlings and transplanted into the test containers a few days prior to treatment. Depending on the species, the plants were kept at 10-25° C. or 20-35° C., respectively. The test period extended over 2 to 4 weeks. During this time, the plants were tended, and their response to the individual treatments was evaluated. Evaluation was carried out using a scale from 0 to 100. 100 means no emergence of the plants, or complete destruction of at least the aerial moieties, and 0 means no damage, or normal course of growth. […] The plants used in the greenhouse experiments were of the following species: [table]

The next assay relates to AVEFA. Put plainly: greenhouse post-emergence herbicidal test. The settings on record: post-emergence method, scale from 0 to 100. The class given is in vivo, Avena fatua.
From the text: as §1

The subject of a further assay is APESV. Kind of assay: greenhouse pre-emergence herbicidal test. The settings on record: pre-emergence method, scale from 0 to 100. The class given is in vivo, Apera spica-venti. A digest of the protocol: (§2)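 Greenhouse plants receive the aqueous active ingredient straight after sowing, before emergence. Response is scored from 0 (no damage) to 100 (no emergence or complete kill of aerial parts) over a 2-4 week period.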

Assay [1] concerns ECHCG. Kind of assay: greenhouse post-emergence herbicidal test. The class given is in vivo, Echinocloa crus-galli. Conditions: post-emergence method, scale from 0 to 100. In short, it runs like this: (§3)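 Post-emergence; plants at 3–15 cm, treated with aqueous suspension/emulsion of compound. 10–25 °C or 20–35 °C per species, 2–4 wk. Score 0 (no damage) to 100 (aerial parts destroyed).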

For another assay, the system named is ALOMY. Kind of assay: greenhouse post-emergence herbicidal test. The class given is in vivo, Alopercurus myosuroides. Conditions: post-emergence method, scale from 0 to 100. In short, it runs like this:
as §3

The test system of assay [2] is ECHCG. Kind of assay: greenhouse pre-emergence herbicidal test. The class given is in vivo, Echinocloa crus-galli. Conditions: pre-emergence method, scale from 0 to 100. In short, it runs like this: as §2

In the case of `CSc1ncc(-c2cc(C(F)(F)F)ccc2C)c(C(=O)O)n1` [example 93], the “herbicidal activity against AMARE” value in the assay on AMARE was “very good (a very good herbicidal activity is given at values of at least 85)”.

In the case of `CSc1ncc(-c2cccc(C)c2C)c(C(=O)O)n1` [example 102], the “herbicidal activity against AMARE” value in the assay on AMARE is “very good (a very good herbicidal activity is given at values of at least 85)”.

Regarding `COc1ccc(C(F)(F)F)cc1-c1cnc(SC)nc1C(=O)O` [example 107], the “herbicidal activity against AMARE” value in the assay on AMARE was “very good (a very good herbicidal activity is given at values of at least 85)”.

Consider `CCSc1ccccc1-c1cnc(SC)nc1C(=O)O` [example 113], for which the “herbicidal activity against AMARE” value in the assay on AMARE is “very good (a very good herbicidal activity is given at values of at least 85)”.

Consider `Cc1ccccc1-c1cnc([S+](C)[O-])nc1C(=O)O` (stereo not shown) [example 126], for which, in the assay on AMARE, the “herbicidal activity against AMARE” value is “very good (a very good herbicidal activity is given at values of at least 85)”.

Consider `COC(=O)c1nc(C2CC2)ncc1-c1cc(Br)ccc1F` [example 191], for which the “herbicidal activity against AVEFA” value in the assay with AVEFA (application rate 1000 g/ha) is “good (A good herbicidal activity is given at values of at least 70)”. Moreover, in the assay on APESV (application rate 1000 g/ha), the “herbicidal activity against APESV” value was “very good (a very good herbicidal activity is given at values of at least 85)”. Besides, the “herbicidal activity against ECHCG” value in the assay on ECHCG [1] (application rate 1000 g/ha) and in the assay with ECHCG [2] (application rate 1000 g/ha) was “very good (a very good herbicidal activity is given at values of at least 85)” each time. For the same compound, in the assay on ALOMY (application rate 1000 g/ha), the “herbicidal activity against ALOMY” value is recorded as “good (A good herbicidal activity is given at values of at least 70)”.

For `COC(=O)c1nc(C2CC2)ncc1-c1c(Br)ccc(F)c1F` [example 197], the “herbicidal activity against AVEFA” value with AVEFA (application rate 1000 g/ha) is listed as “very good (a very good herbicidal activity is given at values of at least 85)”. Moreover, the “herbicidal activity against APESV” value with APESV (application rate 1000 g/ha) was “very good (a very good herbicidal activity is given at values of at least 85)”. Moreover, the “herbicidal activity against ALOMY” value with ALOMY (application rate 1000 g/ha) is on record as “very good (a very good herbicidal activity is given at values of at least 85)”. Further, in the assay on ECHCG [2] (application rate 1000 g/ha), the “herbicidal activity against ECHCG” value is “very good (a very good herbicidal activity is given at values of at least 85)”.

Regarding `COC(=O)c1nc(C2CC2)ncc1-c1c(F)cc(F)cc1Br` [example 214], the “herbicidal activity against AVEFA” value in the assay on AVEFA (application rate 1000 g/ha) is reported as “very good (a very good herbicidal activity is given at values of at least 85)”. Moreover, the “herbicidal activity against APESV” value in the assay on APESV (application rate 1000 g/ha) is recorded as “very good (a very good herbicidal activity is given at values of at least 85)”. For the same compound, the “herbicidal activity against ALOMY” value in the assay on ALOMY (application rate 1000 g/ha) is reported as “very good (a very good herbicidal activity is given at values of at least 85)”. Moreover, the “herbicidal activity against ECHCG” value in the assay with ECHCG [2] (application rate 1000 g/ha) is on record as “very good (a very good herbicidal activity is given at values of at least 85)”.

As for `COC(=O)c1nc(C2CC2)ncc1-c1cc(F)c(F)cc1Br` [example 215], the “herbicidal activity against AVEFA” value with AVEFA (application rate 500 g/ha) was “very good (a very good herbicidal activity is given at values of at least 85)”. Besides, in the assay on APESV (application rate 500 g/ha), the “herbicidal activity against APESV” value is “very good (a very good herbicidal activity is given at values of at least 85)”. Besides, in the assay with ALOMY (application rate 500 g/ha), the “herbicidal activity against ALOMY” value is reported as “very good (a very good herbicidal activity is given at values of at least 85)”. Further, in the assay with ECHCG [2] (application rate 500 g/ha), the “herbicidal activity against ECHCG” value was “very good (a very good herbicidal activity is given at values of at least 85)”.

Consider `O=C(OCc1ccccc1)c1nc(C2CC2)ncc1-c1ccccc1Cl` [example 254], for which the “herbicidal activity against AVEFA” value in the assay on AVEFA (application rate 1000 g/ha) is “very good (a very good herbicidal activity is given at values of at least 85)”. Also, in the assay on APESV (application rate 1000 g/ha), the “herbicidal activity against APESV” value is given as “very good (a very good herbicidal activity is given at values of at least 85)”. The “herbicidal activity against ECHCG” value in the assay on ECHCG [1] (application rate 1000 g/ha) and in the assay with ECHCG [2] (application rate 1000 g/ha) was “very good (a very good herbicidal activity is given at values of at least 85)” in each case. Also, the “herbicidal activity against ALOMY” value in the assay with ALOMY (application rate 1000 g/ha) is “very good (a very good herbicidal activity is given at values of at least 85)”.

In the case of `O=C(Oc1ccccc1)c1nc(C2CC2)ncc1-c1ccccc1Cl` [example 255], the “herbicidal activity against AVEFA” value in the assay with AVEFA (application rate 1000 g/ha) was “very good (a very good herbicidal activity is given at values of at least 85)”. Besides, the “herbicidal activity against APESV” value in the assay with APESV (application rate 1000 g/ha) is “very good (a very good herbicidal activity is given at values of at least 85)”. For the same compound, the “herbicidal activity against ECHCG” value with ECHCG [1] (application rate 1000 g/ha) and in the assay on ECHCG [2] (application rate 1000 g/ha) was “very good (a very good herbicidal activity is given at values of at least 85)” throughout. For the same compound, in the assay with ALOMY (application rate 1000 g/ha), the “herbicidal activity against ALOMY” value was “very good (a very good herbicidal activity is given at values of at least 85)”.

On to `C[Si](C)(C)CCOC(=O)c1nc(C2CC2)ncc1-c1ccccc1Cl` [example 258], for which the “herbicidal activity against AVEFA” value in the assay on AVEFA (application rate 1000 g/ha) was “very good (a very good herbicidal activity is given at values of at least 85)”. For the same compound, the “herbicidal activity against ECHCG” value in the assay with ECHCG [1] (application rate 1000 g/ha) and in the assay with ECHCG [2] (application rate 1000 g/ha) was “very good (a very good herbicidal activity is given at values of at least 85)” in each case. For the same compound, in the assay with ALOMY (application rate 1000 g/ha), the “herbicidal activity against ALOMY” value is “very good (a very good herbicidal activity is given at values of at least 85)”.

As to `COc1ccc(OC(=O)c2nc(C3CC3)ncc2-c2ccccc2Cl)cc1` [example 259], in the assay on AVEFA (application rate 500 g/ha), the “herbicidal activity against AVEFA” value was “very good (a very good herbicidal activity is given at values of at least 85)”. In addition, in the assay with APESV (application rate 500 g/ha), the “herbicidal activity against APESV” value is on record as “very good (a very good herbicidal activity is given at values of at least 85)”. For the same compound, the “herbicidal activity against ECHCG” value is “good (A good herbicidal activity is given at values of at least 70)” in the assay with ECHCG [1] (application rate 500 g/ha) and “very good (a very good herbicidal activity is given at values of at least 85)” with ECHCG [2] (application rate 500 g/ha). Further, in the assay on ALOMY (application rate 500 g/ha), the “herbicidal activity against ALOMY” value is “very good (a very good herbicidal activity is given at values of at least 85)”.

`O=C(NO)c1nc(C2CC2)ncc1-c1ccccc1Cl` [example 290]: the “herbicidal activity against AVEFA” value in the assay with AVEFA (application rate 500 g/ha) is “very good (a very good herbicidal activity is given at values of at least 85)”. Moreover, the “herbicidal activity against APESV” value in the assay with APESV (application rate 500 g/ha) is reported as “very good (a very good herbicidal activity is given at values of at least 85)”. The “herbicidal activity against ALOMY” value in the assay on ALOMY (application rate 500 g/ha) is “very good (a very good herbicidal activity is given at values of at least 85)”. Moreover, the “herbicidal activity against ECHCG” value with ECHCG [2] (application rate 500 g/ha) was “very good (a very good herbicidal activity is given at values of at least 85)”.

For `O=C(O)c1nc(C2CC2)ncc1-c1c(Cl)cccc1C(F)(F)F` [example 304], the “herbicidal activity against AVEFA” value in the assay with AVEFA (application rate 1000 g/ha) is “very good (a very good herbicidal activity is given at values of at least 85)”. Also, the “herbicidal activity against APESV” value in the assay on APESV (application rate 1000 g/ha) was “very good (a very good herbicidal activity is given at values of at least 85)”. Moreover, the “herbicidal activity against ECHCG” value in the assay on ECHCG [1] (application rate 1000 g/ha) is recorded as “very good (a very good herbicidal activity is given at values of at least 85)”. Moreover, the “herbicidal activity against ALOMY” value in the assay with ALOMY (application rate 1000 g/ha) is “very good (a very good herbicidal activity is given at values of at least 85)”.

Regarding `O=C(O)c1nc(C2CC2)ncc1-c1ccccc1I` [example 311], the “herbicidal activity against AVEFA” value in the assay with AVEFA (application rate 500 g/ha) is recorded as “very good (a very good herbicidal activity is given at values of at least 85)”. Besides, the “herbicidal activity against APESV” value in the assay with APESV (application rate 500 g/ha) is on record as “very good (a very good herbicidal activity is given at values of at least 85)”. In addition, the “herbicidal activity against ECHCG” value in the assay with ECHCG [1] (application rate 500 g/ha) and in the assay on ECHCG [2] (application rate 500 g/ha) was “very good (a very good herbicidal activity is given at values of at least 85)” throughout. Besides, the “herbicidal activity against ALOMY” value with ALOMY (application rate 500 g/ha) was “very good (a very good herbicidal activity is given at values of at least 85)”.

`COC(=O)c1nc(C2CC2)ncc1-c1ccccc1I` [example 312]: the “herbicidal activity against AVEFA” value with AVEFA (application rate 500 g/ha) was “very good (a very good herbicidal activity is given at values of at least 85)”. Besides, the “herbicidal activity against APESV” value with APESV (application rate 500 g/ha) is recorded as “very good (a very good herbicidal activity is given at values of at least 85)”. Also, the “herbicidal activity against ECHCG” value in the assay on ECHCG [1] (application rate 500 g/ha) and with ECHCG [2] (application rate 500 g/ha) was “very good (a very good herbicidal activity is given at values of at least 85)” throughout. Also, the “herbicidal activity against ALOMY” value with ALOMY (application rate 500 g/ha) is given as “very good (a very good herbicidal activity is given at values of at least 85)”.

For the compound `O=C(O)c1nc(C(F)(F)F)ncc1-c1ccccc1Cl` [example 315], the “herbicidal activity against AVEFA” value in the assay with AVEFA (application rate 1000 g/ha) is on record as “good (A good herbicidal activity is given at values of at least 70)”. Also, the “herbicidal activity against APESV” value with APESV (application rate 1000 g/ha) is “good (A good herbicidal activity is given at values of at least 70)”. The “herbicidal activity against ECHCG” value is “good (A good herbicidal activity is given at values of at least 70)” in the assay on ECHCG [1] (application rate 1000 g/ha) and “very good (a very good herbicidal activity is given at values of at least 85)” in the assay on ECHCG [2] (application rate 1000 g/ha). Moreover, in the assay with ALOMY (application rate 1000 g/ha), the “herbicidal activity against ALOMY” value was “good (A good herbicidal activity is given at values of at least 70)”.
